Several values for one entry are separate records, joined by “and”; a condition that tells them apart may be missing. Identical values can stand only once. Inconclusive results and toxic doses are left out.
Test system: P388 leukemia ip, CD2F1 mice, survival T/C
Test: NCI In Vivo Anticancer Drug Screen. Data for tumor model P388 Leukemia (intraperitoneal) in CD2F1 (CDF1) mice
Conditions: endpoint: median survival time, higher = longer survival
In short: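 Mice carrying the transplanted tumor received test compound or vehicle. Survival was recorded in each group, and the value is the treated-group measurement divided by that of the vehicle-treated control group.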

[1] = dose: 50.0 mg/kg/injection, schedule: Q01DX009 (ip), vehicle: Klucel (hydroxypropylcellulose) (HPC)
[2] = dose: 100.0 mg/kg/injection, schedule: Q01DX009 (ip), vehicle: Klucel (hydroxypropylcellulose) (HPC)
[3] = dose: 200.0 mg/kg/injection, schedule: Q01DX009 (ip), vehicle: Klucel (hydroxypropylcellulose) (HPC)
[4] = dose: 100.0 mg/kg/injection, schedule: Q01DX001 (ip), vehicle: saline with Tween-80
[5] = dose: 200.0 mg/kg/injection, schedule: Q01DX001 (ip), vehicle: saline with Tween-80
[6] = dose: 400.0 mg/kg/injection, schedule: Q01DX001 (ip), vehicle: saline with Tween-80

In the case of `O=NNc1ccc(Sc2ccc(NN=O)cn2)nc1`, the T/C (dose: 3.12 mg/kg/injection, schedule: Q01DX009 (ip), vehicle: saline) is reported as 100 % of control, the T/C (dose: 6.25 mg/kg/injection, schedule: Q01DX009 (ip), vehicle: saline) is reported as 107 % of control and the T/C (dose: 12.5 mg/kg/injection, schedule: Q01DX009 (ip), vehicle: saline) is reported as 114 % of control. For the same compound, the T/C (dose: 50.0 mg/kg/injection, schedule: Q01DX009 (ip), vehicle: saline) was 122 % of control.

For `CC1SC(=O)NN=C1c1ccccc1` (configuration not stated), the T/C (dose: 50.0 mg/kg/injection, schedule: Q01DX009 (ip), vehicle: saline with Tween-80) was 94 % of control, the T/C (dose: 100.0 mg/kg/injection, schedule: Q01DX009 (ip), vehicle: saline with Tween-80) was 97 % of control and the T/C (dose: 200.0 mg/kg/injection, schedule: Q01DX009 (ip), vehicle: saline with Tween-80) was 106 % of control.

With `O=c1[nH]cc([N+](=O)[O-])c(=O)[nH]1` the T/C (dose: 25.0 mg/kg/injection, schedule: Q01DX009 (ip), vehicle: Klucel (hydroxypropylcellulose) (HPC)) was 94 % of control, the T/C [1] was 99 % of control and the T/C [2] was 95 % of control. The T/C (dose: 100.0 mg/kg/injection, schedule: Q01DX009 (ip), vehicle: distilled water + Tween-80) was 102 % of control, the T/C [3] was 107 % of control and the T/C (dose: 200.0 mg/kg/injection, schedule: Q01DX009 (ip), vehicle: distilled water + Tween-80) was 100 % of control. For the same compound, the T/C (dose: 400.0 mg/kg/injection, schedule: Q01DX009 (ip), vehicle: distilled water + Tween-80) was 99 % of control.

For `CCOC(=O)/C=C(\Br)C(=O)OCC`, the T/C (dose: 3.15 mg/kg/injection, schedule: Q01DX009 (ip), vehicle: saline with Tween-80) was 108 % of control, the T/C (dose: 6.25 mg/kg/injection, schedule: Q01DX009 (ip), vehicle: saline with Tween-80) was 99 % of control and the T/C (dose: 12.5 mg/kg/injection, schedule: Q01DX009 (ip), vehicle: saline with Tween-80) was 119 % of control.

In the case of `c1ccc2c(c1)OCCN1CCNC21` (configuration not stated), the T/C (dose: 100.0 mg/kg/injection, schedule: Q04DX003 (ip), vehicle: saline) is reported as 100 % of control, the T/C (dose: 200.0 mg/kg/injection, schedule: Q04DX003 (ip), vehicle: saline) is reported as 102 % of control and the T/C (dose: 400.0 mg/kg/injection, schedule: Q04DX003 (ip), vehicle: saline) is reported as 101 % of control.

In the case of `N#CC(C#N)=Cc1cc2c3c(c1)CCCN3CCC2`, the T/C [4] is reported as 100 % of control, the T/C [5] is reported as 100 % of control and the T/C [6] is reported as 90 % of control.

For `Cc1ncc(CO)c(CO)c1OCC(O)CN1CCN(c2ccc(F)cc2)CC1` (configuration not stated), the T/C (dose: 60.0 mg/kg/injection, schedule: Q01DX005 (ip), vehicle: saline with Tween-80) was 99 % of control, the T/C (dose: 120.0 mg/kg/injection, schedule: Q01DX005 (ip), vehicle: saline with Tween-80) was 98 % of control and the T/C (dose: 240.0 mg/kg/injection, schedule: Q01DX005 (ip), vehicle: saline with Tween-80) was 104 % of control.

In the case of `C=CCc1c(O)c(OC)cc2c1C(=O)CCCC2`, the T/C [2] is reported as 100 % of control, the T/C [3] is reported as 94 % of control and the T/C (dose: 400.0 mg/kg/injection, schedule: Q01DX009 (ip), vehicle: Klucel (hydroxypropylcellulose) (HPC)) is reported as 94 % of control.

For `O=C1NC(=O)C(c2ccccc2)(c2ccccc2)N1S(=O)(=O)c1ccccc1`, the T/C [1] was 100 % of control, the T/C [2] was 108 % of control and the T/C [3] was 106 % of control.

For `O=NN(CCOCCCl)C(=O)NC1CCCCC1`, the T/C (dose: 6.25 mg/kg/injection, schedule: Q01DX009 (ip), vehicle: water) was 100 % of control, the T/C (dose: 12.5 mg/kg/injection, schedule: Q01DX009 (ip), vehicle: water) was 100 % of control and the T/C (dose: 25.0 mg/kg/injection, schedule: Q01DX009 (ip), vehicle: water) was 107 % of control. For the same compound, the T/C (dose: 200.0 mg/kg/injection, schedule: Q01DX009 (ip), vehicle: water) was 152 % of control.

`CCN(CC)CCOc1ccc(Cl)c(C)c1` was tested, and the T/C (dose: 50.0 mg/kg/injection, schedule: Q01DX005 (ip), vehicle: saline with Tween-80) was 101 % of control and the T/C (dose: 100.0 mg/kg/injection, schedule: Q01DX005 (ip), vehicle: saline with Tween-80) was 103 % of control.

`C/C(=C\c1cc(Cl)ccc1OCC(=O)O)[N+](=O)[O-]` was tested, and the T/C (dose: 50.0 mg/kg/injection, schedule: Q01DX001 (ip), vehicle: saline with Tween-80) was 108 % of control and 116 % of control, the T/C [4] was 121 % of control and 96 % of control and the T/C [5] was 121 % of control. For the same compound, the T/C [6] was 115 % of control.
